Assay results: patent publication US9539303B2, “Treatment of Ras-expressing tumors” (Celgene Corporation, priority 2006, dated 2017)
Several values for one entry are separate records, joined by “and”; a condition that tells them apart may be missing. Equal values may be shown once.

Columns and labels:
[1] = test system: Panc-1 human pancreas tumors (oncogenic K-ras); assay: Panc-1 mouse xenograft model, tumor growth (Example 1); format: in vivo, female nude mice; details: Panc-1 xenograft; FK228 IV Q4Dx3 and/or gemcitabine IP Q3Dx4; vs vehicle control
Protocol: In this study, female nude mice were implanted subcutaneously (SC) by trocar with Panc-1 tumor fragments harvested from SC growing tumors in nude mice hosts. […] The day of treatment initiation was specified as Day 1. Vehicle control and FK228 were administered intravenously on a […] schedule (Days 1, 5, and 9). Gemcitabine was administered by an intraperitoneal injection on a […] schedule (Days 1, 4, 7, 10). Tumors were measured by Vernier calipers twice weekly.

c-Myc = assay: Tissue biomarker immunoblotting of PANC-1 xenograft tumors: c-Myc; format: in vivo; details: PANC-1 tumors at study completion; FK228 5 mg/kg Q4Dx3, gemcitabine 80 mg/kg Q3Dx4, or both; actin-normalized vs control
Protocol: (§1) Specimen Collection: […] Tumor xenograft tissue and serum specimens were obtained from in vivo studies performed by the Preclinical Research Laboratory at the completion of the experiments. […] Serum was obtained from whole blood and stored frozen at -70° C. Tissue Biomarkers: Tumor levels of acetylated histone-4, histone-4, […] were quantified by immunoblotting as described. Briefly, frozen tissue was pulverized under liquid nitrogen and homogenized in hypotonic lysis buffer. Small aliquots of the extracts were used for analysis of protein concentration by micro-BCA assay with bovine serum albumin as a protein standard. An equal amount of extracts containing about 20-50 μg protein was electrophoresed in SDS polyacrylamide gels. Proteins were transferred to ImmunoBlot PVDF membrane and were probed with appropriate primary and secondary antibodies. The chemiluminescence signal was captured by autoradiography, quantified by densitometry and expressed as a ratio of actin in each sample lane. For each biomarker, means and standard errors were calculated in each treatment group. […] Following quantitative analysis of biomarker levels in each sample, the results were normalized for b-actin and expressed as percentages of untreated controls. […]

acetylated histone 4 = assay: Tissue biomarker immunoblotting of PANC-1 xenograft tumors: acetylated histone 4; format: in vivo; details: PANC-1 tumors at study completion; FK228 5 mg/kg Q4Dx3, gemcitabine 80 mg/kg Q3Dx4, or both
Protocol: as §1

[2] = Animal weight and drug toxicity, PANC-1 study
Text: (§2) Model Information—Female nude mice (nu/nu) between 5 and 6 weeks of age weighing approximately 20 grams were obtained from Harlan, Inc. (Madison, Wis.). PANC-1, obtained from the ATCC, is a pancreas tumor cell line originating from a person^(1-2). BxPC-3, obtained from the American Type Culture Collection (ATCC), is a pancreas tumor cell line originating from a person^(3-4). PANC-1 Study: Animals were implanted subcutaneously (SC) by trocar with fragments of PANC-1 harvested from SC growing tumors in nude mice hosts. When tumors grew to approximately 135 cubic millimeters (mm^3) in size (17 days following implantation, animals were pair-matched by tumor size into treatment and control groups; each treatment group contained nine mice. BxPC-3 Study: Animals were implanted subcutaneously (SC) by trocar with fragments of BxPC-3 harvested from SC growing tumors in nude mice hosts. When tumors grew to approximately 85 cubic millimeters (mm^3) in size (19 days following implantation), animals were pair-matched by tumor size into treatment and control groups; each treatment group contained nine mice. Animals in both studies were ear-tagged and followed individually throughout the experiment.
(§3) Study Design and Dosing—Initial doses were administered on Day 1 following pair-matching; both experiments were carried out as tumor growth inhibition (TGI) studies. Animals were dosed intravenously (IV) via tail vein with FK228 once every four days for three treatments (Q4Dx3) or by intraperitoneal (IP) injection with gemcitabine once every three days for four treatments (Q3Dx4), either alone or in combination, at the doses listed below (Table 1). To serve as a negative control, FK228 vehicle (2% ethanol, 8% propylene glycol, 90% 0.9% saline) was injected on a Q4Dx3 schedule.
(§4) Animal Weights—Individual and group mean weights±SD and percent weight change through Day 25 (PANC-1) or Day 29 (BxPC-3) were recorded twice weekly until study completion beginning Day 1. Final group mean weights±SD and group nadir values are reported; weight data from individual animals experiencing technical or drug-related deaths was censored from final group calculations.
(§5) Moribundity/Mortality—Animals were observed twice weekly for general moribundity and daily for mortality. Animal deaths were assessed as drug-related or technical based on factors including gross observation and weight loss; reported animal death information includes type, number, and day of death for each group.

[3] = test system: BxPC-3 human pancreatic tumor xenograft; assay: BxPC-3 human pancreatic tumor xenograft tumor growth inhibition study (Example 3); format: in vivo, female nude mice (nu/nu); details: for % TGI / Final tumor volume mean ± SEM: Day 29
Text: (Madison, Wis.). […] Tumor measurements were converted to cubic millimeter tumor volume using the formula^(5): […] TGI values for each treatment group are reported at study completion; these calculations are based on the final study day. […] Individual mice lacking palpable tumors were classified as undergoing complete regression (CR). Animals experiencing partial or complete tumor regressions were censored from TGI calculations. However, data from these animals was included in statistical analysis calculations. In addition, weight data from these animals was included in daily and final group calculations. Tumor Necrosis-Degree of tumor necrosis was rated at each tumor measurement using the following arbitrary index: […]

[4] = Animal weight and drug toxicity, BxPC-3 study
Text: as §2, §3, §4, §5

[5] = test system: transformed (H, K, N-Ras and the rat Her-2/NeuT) NIH-3T3 cells; assay: 4-day proliferation assay, transformed NIH-3T3 cell lines; format: cell-based, mouse; details: 2 nM romidepsin
Protocol: A series of transformed NIH-3T3 cell likes were generated and a proliferation assay was performed in the presence of 2, 3, or 4 nM romidepsin. FIG. 23 illustrates the transformed morphology of the cells. FIG. 24 presents graphs of cell proliferation.

[6] = FK228 2.5 mg/kg IV Q4Dx3, 2.5 mg/kg
[7] = FK228 5 mg/kg IV Q4Dx3, 5 mg/kg
[8] = BxPC-3 study, FK228 2.5 mg/kg IV Q4Dx3
[9] = BxPC-3 study, FK228 2.5 mg/kg IV Q4Dx3, 2.5 mg/kg
[10] = BxPC-3 study, FK228 5 mg/kg IV Q4Dx3
[11] = BxPC-3 study, FK228 5 mg/kg IV Q4Dx3, 5 mg/kg

## C/C=C1\NC(=O)[C@H]2CSSCC/C=C/[C@H](CC(=O)N[C@H](C(C)C)C(=O)N2)OC(=O)[C@H](C(C)C)NC1=O [FK228, romidepsin]
[1]
  tumor growth inhibition: 26%
c-Myc
  extent of inhibition of c-Myc expression: 50%
Acetylated histone 4
  levels of acetylated histone 4 vs control: over 2 fold
[2]; Day 25, FK228 2.5 mg/kg IV Q4Dx3
  Final weight data % change: +8%
[2]; Day 25, FK228 2.5 mg/kg IV Q4Dx3, 2.5 mg/kg
  Final weight data mean ± SD: 23±2 G
[2]; Day 25, FK228 5 mg/kg IV Q4Dx3
  Final weight data % change: +9%
[2]; Day 25, FK228 5 mg/kg IV Q4Dx3, 5 mg/kg
  Final weight data mean ± SD: 25±2 G
[2]; FK228 2.5 mg/kg IV Q4Dx3
  Weight nadir % change: −9%
  Weight nadir day: 11
[2]; [6]
  Drug deaths total: 0/9 and 0
[2]; FK228 5 mg/kg IV Q4Dx3
  Weight nadir % change: −12%
  Weight nadir day: 11
[2]; [7]
  Drug deaths total: 0/9 and 0
[3]; [8]
  % TGI: No TGI
  Activity according to NCI standards: inactive
  Tumor necrosis: 2/9 animals reported mild tumor necrosis
[3]; [9]
  Final tumor volume mean ± SEM: 2440±643 mm^3
  #PR/CR: 0/9 and 0/0
[3]; [10]
  % TGI: No TGI
  Activity according to NCI standards: inactive
  Tumor necrosis: 2/9 animals reported mild tumor necrosis
[3]; [11]
  Final tumor volume mean ± SEM: 2620±238 mm^3
  #PR/CR: 0/9 and 0/0
[3]; BxPC-3 study, at the evaluated doses and schedules
  calculated TGI values: No tumor growth inhibition
[3]; wildtype ras BxPC-3, all evaluated doses
  antitumor activity (overall conclusion): inactive
[4]; Day 29, FK228 2.5 mg/kg IV Q4Dx3
  Final weight data % change: +10%
[4]; Day 29, FK228 2.5 mg/kg IV Q4Dx3, 2.5 mg/kg
  Final weight data mean ± SD: 25±2 G
[4]; Day 29, FK228 5 mg/kg IV Q4Dx3
  Final weight data % change: +7%
[4]; Day 29, FK228 5 mg/kg IV Q4Dx3, 5 mg/kg
  Final weight data mean ± SD: 24±1 G
[4]; FK228 2.5 mg/kg IV Q4Dx3
  Weight nadir % change: −5%
  Weight nadir day: 11
[4]; [6]
  Drug deaths total: 0/9 and 0
[4]; FK228 5 mg/kg IV Q4Dx3
  Weight nadir % change: −15%
  Weight nadir day: 11
[4]; [7]
  Drug deaths total: 0/9 and 0
[5]
  inhibition of proliferation, transformed vs untransformed cells: selectively inhibited
